Source: PubChem BioAssay (NCI)
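Five compound concentrations were applied to cells in 96-well plates for 48 hours; endpoints were derived by simple linear interpolation of the resulting dose-response curve. The concentration for full growth arrest is given as TGI.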

How the values were obtained:
Test in all cases: inhibition of tumour cell growth, NCI panel, 48 h
RPMI-8226 leukemia = test system: RPMI-8226 leukemia
A549 NSCLC = test system: A549 NSCLC
CAKI-1 renal = test system: CAKI-1 renal
SF-295 CNS = test system: SF-295 CNS
HOP-92 NSCLC = test system: HOP-92 NSCLC
SK-OV-3 ovarian = test system: SK-OV-3 ovarian
COLO 205 colon = test system: COLO 205 colon
PC-3 prostate = test system: PC-3 prostate
SR leukemia = test system: SR leukemia
786-0 renal = test system: 786-0 renal
ACHN renal = test system: ACHN renal
SW-620 colon = test system: SW-620 colon
CCRF-CEM leukemia = test system: CCRF-CEM leukemia
MALME-3M melanoma = test system: MALME-3M melanoma
SNB-75 CNS = test system: SNB-75 CNS
HCT-116 colon = test system: HCT-116 colon
UO-31 renal = test system: UO-31 renal

Structure (SMILES)	TGI (RPMI-8226 leukemia)	TGI (A549 NSCLC)	TGI (CAKI-1 renal)	TGI (SF-295 CNS)	TGI (HOP-92 NSCLC)	TGI (SK-OV-3 ovarian)	TGI (COLO 205 colon)	TGI (PC-3 prostate)	TGI (SR leukemia)	TGI (786-0 renal)	TGI (ACHN renal)	TGI (SW-620 colon)	TGI (CCRF-CEM leukemia)	TGI (MALME-3M melanoma)	TGI (SNB-75 CNS)	TGI (HCT-116 colon)	TGI (UO-31 renal)
COc1ccc(N2C(=O)C(C)SC2c2cc3cc(Br)ccc3nc2Cl)cc1 (configuration not stated)	> 100 µM	> 100 µM	> 100 µM	> 100 µM	82.9 µM	> 100 µM	> 100 µM	> 100 µM	72.3 µM	> 100 µM	> 100 µM	> 100 µM	> 100 µM	> 100 µM	> 100 µM	> 100 µM	> 100 µM
CC1=NN(C(=O)CC(=O)Nc2ccc(C)cc2)C(=O)C1N=Nc1ccc(S(=O)(=O)c2ccc(N=NC3C(=O)N(C(=O)CC(=O)Nc4ccc(C)cc4)N=C3C)cc2)cc1 (configuration not stated)	> 100 µM	> 100 µM	> 100 µM	> 100 µM	> 100 µM	> 100 µM	> 100 µM	> 100 µM	> 100 µM	> 100 µM	> 100 µM	> 100 µM	> 100 µM	> 100 µM	> 100 µM	> 100 µM	> 100 µM
CCOc1cc2c(cc1O)CC[C@@H]1[C@@H]2CC[C@]2(C)C(N)CC[C@@H]12 (some centres not stated)	10 µM	16.1 µM	22.7 µM	12.5 µM	27 µM	17.6 µM	17.3 µM	13.7 µM	7 µM	13.8 µM	26.2 µM	14.3 µM	18.2 µM	28.2 µM	6.48 µM	12.6 µM	16.2 µM
Nc1nc2n[nH]nc2c(=O)[nH]1	15.7 µM	> 100 µM	> 100 µM	> 33.1 µM	38.5 µM	9.21 µM	24.3 µM	> 100 µM	20.4 µM	> 100 µM	> 59.7 µM	> 100 µM	> 100 µM	16.8 µM	> 66.8 µM	8.95 µM	29.3 µM
COc1ccc2c(c1)-c1[nH]c3ccc(OC)cc3c1CC2	48.2 µM	30.2 µM	34.8 µM	26.3 µM	36.2 µM	33.8 µM	37.4 µM	24.1 µM	53.2 µM	34 µM	36.5 µM	49.4 µM	80.6 µM	28.7 µM	26.9 µM	32.4 µM	31.4 µM
COc1ccc(C2=NN(C(N)=S)C(c3ccccc3)C2)cc1 (configuration not stated)	74.8 µM	> 100 µM	> 100 µM	96.2 µM	> 100 µM	> 100 µM	58.7 µM	97.5 µM	77.3 µM	> 100 µM	> 100 µM	> 100 µM	> 100 µM	82.2 µM	87.5 µM	> 100 µM	> 100 µM
